The values below come from US12403079B2, “Ingredient in sunscreen compositions” (MAGIC BLUE, LLC, priority 2019, dated 2025).

In data set [1] the test system is primary human skin cells (skin fibroblast cells or primary keratinocytes). In words: in vitro 2D skin model, cell proliferation. Type of data set: cell-based. Particulars: after 13 days; for cell proliferation: 100 nM and 1 μM, relative to control treatment. The text has this: Methylene Blue: [7-(dimethylamino) phenthiazin-3-ylldene]-dImethylazinium chloride, or more simply as methylthloninium chloride. Also included are all hydrates, particularly, the hydrate or trihydrate of Methylene Blue as well as all dermatologically acceptable salts thereof, such as the chloride salt. All forms of Methylene Blue are also abbreviated herein as MB and are to be understood as such. about: as used herein means±10%. […] Examples of conventional sunscreen excipients or adjuvants, include, for example, xanthan gums, corn starch, film-forming polymers and/or copolymers, glycerin, emulsifiers, moisturizing agents and cosmetic ingredients. Further examples of conventional sunscreen composition excipients or adjuvants are described in U.S. Pat. Nos. 9,149,664; 8,128,913; 9,050,475 and 6,800,274, all of which are incorporated herein by reference in the entirety. The present invention specifically avoids the inclusion of Oxybenzone and/or Octinoxate in the aforementioned U.S. patents which are used as UVA and/or UVB absorbers, and uses instead, Methylene Blue or any of the hydrates or dermatologically-acceptable salts thereof. Further, it is explicitly contemplated that conventional inorganic compounds, such as zinc oxide and/or titanium oxide, for example, may be used in formulating the sunscreen composition of the present invention. Also, polymers and/or copolymers that are conventionally used as sunscreen stabilizer emollients, such as polyester-8, may also be used in the present sunscreen formulations. Dermatologically-acceptable salts of MB: includes all salts recognized as safe for application to human skin, but generally, the chloride and/or hydrochloride salts are preferred. In vitro 2D skin test: This test is described in by Xiong, et al. in Scientific Reports 7, Article number: 2475 (2017), using primary human skin cells (skin fibroblast cells or primary keratinocytes). Sunscreen agents excluded from the present invention: the conventional sunscreen compounds Oxybenzone and Octinoxate are explicitly excluded from this invention. However, other conventional FDA-approved UVA and UVB absorbers may be used in combination with MB, its hydrates or salts in the present invention. SPF: means a “sun protection factor” defined at 21 USC 352.1 et seq. using the term MED, which in turn means Minimal Erythema Dose, which is defined as the quantity of erythema-effective energy (expressed in Joules per square meter) required to produce the first perceptible redness reaction with clearly defined borders. […]

For data set [2] the following is noted: scale of 1-10 (with 10 being the worst); cited from earlier work.
Data set [3] concerns primary human skin cells (skin fibroblast cells or primary keratinocytes). In words: in vitro 2D skin model, cellular ROS levels by MitoSOX. It is filed as cell-based. The note with it: 100 nM and 1 μM, 0.1% DMSO solvent control. An excerpt: Methylene Blue: [7-(dimethylamino) phenthiazin-3-ylldene]-dImethylazinium chloride, or more simply as methylthloninium chloride. Also included are all hydrates, particularly, the hydrate or trihydrate of Methylene Blue as well as all dermatologically acceptable salts thereof, such as the chloride salt. All forms of Methylene Blue are also abbreviated herein as MB and are to be understood as such. about: as used herein means±10%. […] Examples of conventional sunscreen excipients or adjuvants, include, for example, xanthan gums, corn starch, film-forming polymers and/or copolymers, glycerin, emulsifiers, moisturizing agents and cosmetic ingredients. Further examples of conventional sunscreen composition excipients or adjuvants are described in U.S. Pat. Nos. 9,149,664; 8,128,913; 9,050,475 and 6,800,274, all of which are incorporated herein by reference in the entirety. […] SPF: means a “sun protection factor” defined at 21 USC 352.1 et seq. using the term MED, which in turn means Minimal Erythema Dose, which is defined as the quantity of erythema-effective energy (expressed in Joules per square meter) required to produce the first perceptible redness reaction with clearly defined borders. […]

The test system of data set [4] is human skin fibroblasts. The data set is described as follows: recovery of MB-pretreated skin fibroblasts after UVB radiation (cell viability, survival). Type of data set: cell-based. The note with it: 100 nM pre-treatment for two weeks. On the procedure: In this example, the protection ability of MB against UVB radiation was measured. […] Here, a preliminary study was conducted in which human skin fibroblasts were pre-treated with MB at 100 nM concentration for two weeks and then exposed to 0, 5, 10 and 20 seconds of UVB radiation at 1100 mW/cm^2. In this preliminary study, both groups, i.e., MB-exposed skin cells and the control group, were exposed to the same amount of UVB radiation.

For a further data set, the system named is human keratinocyte cells. In words: cell death of keratinocytes after harsh UVB irradiation. Type of data set: cell-based. Particulars: 5 days, versus control human keratinocyte cells.
Data set [5] in a line: spectrophotometric UV absorption of dilute solutions. It is filed as physicochemical. The note with it: 1 mM, MB versus BP-3. The method, then:
In this example, the absorption characteristics based on spectrophotometric analysis of various dilute solutions of each of MB and oxybenzone (BP-3) were measured and then compared. The solution concentrations for each of MB and BP-3 were 100 μM and 1 mM.

The subject of another data set is Umbrella xenia. In words: soft coral exposure in seawater for one week. It is filed as in vivo. The note with it: 0.5 and 1.0 μM in seawater. The text has this:
Samples of Umbrella xenia were placed in individual containers filled with seawater plus any one of MB or Oxybenzone or Octinoxate for one week. All of the containers were otherwise under the exact same temperature, lighting and water flow conditions. Separate containers were used for both “Control” (nothing added) and DMSO, also added in the same two concentrations specified below for MB, Oxybenzone and Octinoxate.

Data set [6] relates to human skin fibroblasts. The data set is described as follows: gamma H2AX levels (DNA double strand breakage) after UVB exposure. Particulars: 24 hours after UVB exposure, 100 nM pre-treatment; control group doubled. It is filed as cell-based. On the procedure: In this example, the protection ability of MB against UVB radiation was measured. […] Here, a preliminary study was conducted in which human skin fibroblasts were pre-treated with MB at 100 nM concentration for two weeks and then exposed to 0, 5, 10 and 20 seconds of UVB radiation at 1100 mW/cm^2.
Specifically, the histone H2AX Is phosphorylated to a gamma form (gamma H2AX) upon DNA double strand breakage and levels of gamma H2AX positively correlate with the presence of DNA breaks, which are commonly generated by UVB radiation.

Take `COc1ccc(C(=O)c2ccccc2)c(O)c1` [BP-3]: the cell proliferation entry in data set [1] was “no changes in growth”. Moreover, in data set [2], the EWG hazard score is recorded as 8. Besides, the “cellular reactive oxygen species (ROS) levels by MitoSOX” value in data set [3] is “elevated ROS levels”.
Turning to `CN(C)c1ccc2nc3ccc(=[N+](C)C)cc-3sc2c1` [MB, [7-(dimethylamino)phenthiazin-3-ylldene]-dImethylazinium chloride], the “recovery after UVB radiation (cell viability)” value in the data set with human skin fibroblasts [4] (UVB 0-20 seconds at 1100 mW/cm^2, five days recovery, versus control group) is “significantly superior recovery”. The “survival after high dosage-UVB radiation (imaging analysis)” value with human skin fibroblasts [4] (versus control samples) is listed as “superior survival”. Moreover, in the data set with human keratinocyte cells, the “rescue of cell death after harsh UVB irradiation (FIG. 6)” value is reported as “partially rescue cell death”. Moreover, the “protection against UVB radiation (absorption)” value in data set [5] is recorded as “superior protection against UVB radiation”. For the same molecule, in the data set with Umbrella xenia, the “effects on soft corals” value is listed as “No adverse effects”. Also, in data set [1], the cell proliferation result is on record as “increase in cell proliferation”. Besides, the figures for the “cell number reading (FIG. 1)” value in data set [1] (100 nM) and in data set [1] (1 μM) were “greatest cell number reading” and “somewhat less”, respectively. Further, the “levels of gamma H2AX” value in the data set with human skin fibroblasts [6] is “reduced levels of gamma H2AX”. Moreover, the “cellular reactive oxygen species (ROS) levels by MitoSOX” value in data set [3] is recorded as “dosage-dependent reduction in ROS”.
